ChEMBL document CHEMBL1153068, “Discriminatory synergistic effect of Trp-substitutions in superagonist [(Arg/Lys)(14), (Arg/Lys)(15)]nociceptin on ORL1 receptor binding and activation” (Bioorg Med Chem, 2009)

What was measured:
Nociceptin receptor [1] = target: T1, Nociceptin receptor (Rattus norvegicus, UniProt P35370); assay: Displacement of [3H]nociceptin from rat ORL1 receptor expressed in african green monkey COS7 cells by competitive binding assay; assay type: cell-based, COS-7
Nociceptin receptor [2] = target: T1, Nociceptin receptor; assay: Agonist activity at rat ORL1 receptor expressed in african green monkey COS7 cells assessed as stimulation of [35S]GTPgammaS binding by radioligand receptor-binding assay; assay type: functional, cell-based, COS-7
[3] = target: Nociceptin receptor (Rattus norvegicus) (UniProt P35370); assay: Relative potency, ratio of wild type nociceptin EC50 to compound EC50 for stimulation of [35S]GTPgammaS binding to rat ORL1 receptor expressed in african green monkey COS7 cells; assay type: functional, cell-based; details: COS-7
Sequence of Nociceptin receptor (Rattus norvegicus) (P35370 whole entry): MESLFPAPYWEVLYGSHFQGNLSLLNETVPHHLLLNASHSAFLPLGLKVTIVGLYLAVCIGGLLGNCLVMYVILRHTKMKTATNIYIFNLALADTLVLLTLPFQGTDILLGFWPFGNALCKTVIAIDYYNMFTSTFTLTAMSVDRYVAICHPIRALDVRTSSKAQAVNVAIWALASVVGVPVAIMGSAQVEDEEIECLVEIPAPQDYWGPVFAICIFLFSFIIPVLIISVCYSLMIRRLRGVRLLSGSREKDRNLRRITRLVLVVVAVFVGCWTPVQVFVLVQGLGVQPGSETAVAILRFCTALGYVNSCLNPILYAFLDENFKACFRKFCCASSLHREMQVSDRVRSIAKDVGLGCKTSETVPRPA

[4] = target: Nociceptin receptor (Rattus norvegicus) (UniProt P35370); assay: Relative potency, ratio of wild type nociceptin IC50 to compound IC50 for rat ORL1 receptor expressed in african green monkey COS7 cells; assay type: cell-based; details: COS-7

T1 sequence (P35370 whole entry): as above

Compound | IC50 (Nociceptin receptor [1]) | EC50 (Nociceptin receptor [2]) | Ratio EC50 [3] | Ratio IC50 [4]
H-FGGFTGARKSARKWKNQ-OH [listing 1 of 2 here] | 0.25 nM | 1.3 nM | – | –
H-FGGFTGARKSARKWKNQ-OH [listing 2 of 2 here] | – | – | 10 | 2.92
H-FGGFTGARKSARKWANQ-OH | – | – | 2.24 | 1.78
H-FGGFTGARKSARKLWNQ-OH | – | – | 0.26 | 0.35
H-FGGFTGARKSARKRWNQ-OH | 0.3 nM | 3.1 nM | 4.19 | 2.43
H-FGGFTGARKSARKWRNQ-OH | 0.23 nM | 1.3 nM | 10 | 3.17
H-FGGFTGARKSARKKWNQ-OH | 0.31 nM | 3.2 nM | 4.06 | 2.35
C[C@H](NC(=O)CNC(=O)[C@@H](NC(=O)[C@H](Cc1ccccc1)NC(=O)CNC(=O)CNC(=O)[C@@H](N)Cc1ccccc1)[C@@H](C)O)C(=O)N[C@@H](CCCNC(=N)N)C(=O)N[C@@H](CCCCN)C(=O)N[C@@H](CO)C(=O)N[C@@H](C)C(=O)N[C@@H](CCCNC(=N)N)C(=O)N[C@@H](CCCCN)C(=O)N[C@@H](CCCNC(=N)N)C(=O)N[C@@H](CCCCN)C(=O)N[C@@H](CC(N)=O)C(=O)N[C@@H](CCC(N)=O)C(=O)O | – | – | 11.8 | 3.48
